Assay results as given in ChEMBL document CHEMBL5137068, “Discovery of Hexahydrofuro[3,2-b]furans as New Kinase-Selective and Orally Bioavailable JAK3 Inhibitors for the Treatment of Leukemia Harboring a JAK3 Activating Mutant” (J Med Chem, 2022).
The source made the active and inactive calls. The rule behind the calls is not given here.

What was measured:
[1] = tested on: U-937; experiment: Induction of cell cycle arrest in human U-937 cells assessed as accumulation at G0/G1 phase at 300 nM measured after 24 hrs by propidium iodide staining based flow cytometric analysis (reference value: 62.95%); assay type: functional
[2] = tested on: U-937; experiment: Induction of cell cycle arrest in human U-937 cells assessed as accumulation at S phase at 300 nM measured after 24 hrs by propidium iodide staining based flow cytometric analysis (reference value: 15.35%); assay type: functional
[3] = target: T1, Signal transducer and activator of transcription 5A (Homo sapiens) (UniProt P42229); experiment: Inhibition of STAT5 in human U-937 cells assessed as decrease in P-STAT5 phosphorylation at 200 uM pretreated for 10 hrs followed by compound washout by immunoblotting analysis; assay type: cell-based
T1 sequence (whole entry): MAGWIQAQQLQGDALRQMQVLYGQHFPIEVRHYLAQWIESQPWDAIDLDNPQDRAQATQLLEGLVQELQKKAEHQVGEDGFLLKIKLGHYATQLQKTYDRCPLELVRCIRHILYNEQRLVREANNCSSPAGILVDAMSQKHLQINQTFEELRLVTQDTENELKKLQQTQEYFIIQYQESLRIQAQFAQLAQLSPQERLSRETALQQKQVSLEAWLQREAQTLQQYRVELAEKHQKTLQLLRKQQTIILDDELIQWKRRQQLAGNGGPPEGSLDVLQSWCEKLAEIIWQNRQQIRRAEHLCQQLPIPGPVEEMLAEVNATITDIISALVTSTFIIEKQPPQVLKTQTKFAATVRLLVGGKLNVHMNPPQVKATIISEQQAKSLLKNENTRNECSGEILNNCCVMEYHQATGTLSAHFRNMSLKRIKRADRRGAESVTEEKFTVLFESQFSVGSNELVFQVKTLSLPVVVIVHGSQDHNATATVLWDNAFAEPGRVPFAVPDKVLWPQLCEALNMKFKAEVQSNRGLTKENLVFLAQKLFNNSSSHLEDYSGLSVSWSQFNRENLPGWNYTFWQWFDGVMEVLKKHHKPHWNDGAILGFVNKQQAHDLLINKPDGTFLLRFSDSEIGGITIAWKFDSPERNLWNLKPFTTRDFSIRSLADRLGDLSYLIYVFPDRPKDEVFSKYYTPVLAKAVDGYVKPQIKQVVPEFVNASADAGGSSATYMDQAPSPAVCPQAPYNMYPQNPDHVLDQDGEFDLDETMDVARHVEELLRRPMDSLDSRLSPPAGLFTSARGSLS

[4] = target: Receptor-type tyrosine-protein kinase FLT3 (Homo sapiens) (UniProt P36888); experiment: Inhibition of human FLT3 at 0.5 uM relative to control
Sequence of Receptor-type tyrosine-protein kinase FLT3 (Homo sapiens) (P36888 whole entry): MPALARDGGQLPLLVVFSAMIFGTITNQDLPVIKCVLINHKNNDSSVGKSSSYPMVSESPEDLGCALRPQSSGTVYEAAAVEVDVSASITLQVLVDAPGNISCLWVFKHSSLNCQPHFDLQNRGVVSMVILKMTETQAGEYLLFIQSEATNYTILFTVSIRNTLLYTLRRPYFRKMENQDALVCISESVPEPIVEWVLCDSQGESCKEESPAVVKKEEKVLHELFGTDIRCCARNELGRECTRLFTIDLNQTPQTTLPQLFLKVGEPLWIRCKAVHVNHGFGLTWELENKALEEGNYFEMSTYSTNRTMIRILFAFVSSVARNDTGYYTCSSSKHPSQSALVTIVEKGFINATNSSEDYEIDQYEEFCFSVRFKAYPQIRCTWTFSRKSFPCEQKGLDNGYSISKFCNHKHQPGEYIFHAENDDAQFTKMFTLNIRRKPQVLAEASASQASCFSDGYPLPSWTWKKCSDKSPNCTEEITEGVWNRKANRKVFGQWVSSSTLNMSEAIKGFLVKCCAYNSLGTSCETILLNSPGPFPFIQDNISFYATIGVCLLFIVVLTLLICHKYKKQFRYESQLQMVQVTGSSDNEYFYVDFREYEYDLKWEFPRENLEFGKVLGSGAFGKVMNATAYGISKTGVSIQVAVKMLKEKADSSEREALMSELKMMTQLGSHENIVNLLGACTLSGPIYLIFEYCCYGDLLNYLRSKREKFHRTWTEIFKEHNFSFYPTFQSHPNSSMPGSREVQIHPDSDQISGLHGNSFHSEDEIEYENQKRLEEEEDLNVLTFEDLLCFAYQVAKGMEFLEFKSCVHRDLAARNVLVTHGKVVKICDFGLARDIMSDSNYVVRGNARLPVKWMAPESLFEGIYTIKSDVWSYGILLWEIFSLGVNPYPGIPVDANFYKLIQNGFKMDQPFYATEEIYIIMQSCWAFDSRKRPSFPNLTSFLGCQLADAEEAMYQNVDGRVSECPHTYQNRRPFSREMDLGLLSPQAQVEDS

[5] = target: T2, Tyrosine-protein kinase JAK3 (Homo sapiens) (UniProt P52333); experiment: Inhibition of JAK3 in human U-937 cells assessed as decrease in P-JAK3 phosphorylation at 200 uM pretreated for 10 hrs followed by compound washout by immunoblotting analysis; assay type: cell-based
T2 sequence (whole entry): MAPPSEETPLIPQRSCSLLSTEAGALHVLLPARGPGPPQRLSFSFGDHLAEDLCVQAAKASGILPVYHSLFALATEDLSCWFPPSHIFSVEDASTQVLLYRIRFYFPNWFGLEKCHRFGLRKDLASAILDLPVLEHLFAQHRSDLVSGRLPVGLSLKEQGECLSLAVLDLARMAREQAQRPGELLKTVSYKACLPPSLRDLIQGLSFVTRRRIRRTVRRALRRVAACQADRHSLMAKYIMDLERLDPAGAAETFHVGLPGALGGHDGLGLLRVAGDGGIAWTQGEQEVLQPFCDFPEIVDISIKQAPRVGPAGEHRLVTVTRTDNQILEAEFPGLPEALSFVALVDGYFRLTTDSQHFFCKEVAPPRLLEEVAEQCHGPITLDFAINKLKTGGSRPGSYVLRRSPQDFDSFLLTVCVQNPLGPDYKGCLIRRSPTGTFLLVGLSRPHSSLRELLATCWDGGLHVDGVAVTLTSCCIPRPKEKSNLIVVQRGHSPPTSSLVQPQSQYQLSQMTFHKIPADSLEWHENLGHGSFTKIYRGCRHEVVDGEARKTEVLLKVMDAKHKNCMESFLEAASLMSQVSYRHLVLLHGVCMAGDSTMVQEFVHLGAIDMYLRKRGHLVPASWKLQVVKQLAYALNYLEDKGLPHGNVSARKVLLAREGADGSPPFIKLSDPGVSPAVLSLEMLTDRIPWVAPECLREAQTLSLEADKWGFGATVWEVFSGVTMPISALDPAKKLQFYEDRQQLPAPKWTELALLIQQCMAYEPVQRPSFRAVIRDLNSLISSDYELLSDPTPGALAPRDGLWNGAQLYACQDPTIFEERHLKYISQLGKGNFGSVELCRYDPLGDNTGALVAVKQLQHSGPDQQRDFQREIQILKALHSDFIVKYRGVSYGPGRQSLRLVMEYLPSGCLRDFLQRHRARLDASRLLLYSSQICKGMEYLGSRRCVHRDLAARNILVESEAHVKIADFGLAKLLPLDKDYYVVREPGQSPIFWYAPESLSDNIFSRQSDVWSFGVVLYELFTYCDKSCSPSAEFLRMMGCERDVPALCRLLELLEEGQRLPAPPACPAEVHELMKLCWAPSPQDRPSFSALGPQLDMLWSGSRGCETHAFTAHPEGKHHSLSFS

inhibition [3]: Active
inhibition [4]: 23%
inhibition [5]: Active
Structure (SMILES): C=CC(=O)Nc1cc(Nc2ncc(Cl)c(O[C@@H]3CO[C@H]4[C@@H]3OC[C@H]4OC)n2)ccc1N(C)CCN(C)C
Activity [1]: 76.88%
Activity [2]: 7.5%
